Results taken from EP0624315B1, “Diaryl(pyridinio and isoquinolinio) boron fungicidal agents” (AMERICAN CYANAMID COMPANY, priority 1993, dated 1994).

Columns and labels:
[1] = test system: Erysiphe graminis f. sp. tritici; assay: In vivo fungicidal evaluation, Wheat Powdery Mildew; conditions: 200 ppm, host plants sprayed, dried, then inoculated; note: ranges in brackets are in %
Cercospora beticola = assay: In vivo fungicidal evaluation, Sugar Beet Cercospora; conditions: 200 ppm, host plants sprayed, dried, then inoculated; note: ranges in brackets are in %
Plasmopara viticola = assay: In vivo fungicidal evaluation, Grape Downy Mildew; conditions: 200 ppm, host plants sprayed, dried, then inoculated; note: ranges in brackets are in %
Pythium ultimum (Pythul) = assay: In vitro fungicidal evaluation, mycelial growth inhibition in nutrient broth; assay type: cell-based; conditions: 25 ppm, 3-4 days at 21°C, rated visually; note: ranges in brackets are in %
Procedure: (§1) Test compounds are dissolved or suspended in acetone and dispersed into cell well plates containing a suspension of ground fungal mycelia in a nutrient broth. Assay plates are incubated for 3-4 days at 21°C. Growth inhibition is measured visually and is rated using the following scale:
(§2) Untreated controls, solvent blanks and reference standards are included in each test.
(§3) Assay fungi include the plant pathogens, Pythium ultimum (Pythul); Rhizoctonia solani (Rhizso); Fusarium oxysporum f. sp. cucumerinum (Fusoxc); and Pseudocercosporella herpotrichoides (Psdche).
(§4) When more than one test is run, the data are averaged. The compouds evaluated are reported by compound number given in Example 5.

[2] = test system: Pseudocercosporella herpotrichoides (Psdche); assay: as above; assay type: cell-based; conditions: 25 ppm, 3-4 days at 21°C, rated visually; note: ranges in brackets are in %
Procedure: as §1, §2, §3, §4

[3] = test system: Fusarium oxysporum f. sp. cucumerinum (Fusoxc); assay: as above; assay type: cell-based; conditions: 25 ppm, 3-4 days at 21°C, rated visually; note: ranges in brackets are in %
Procedure: as §1, §2, §3, §4

[4] = test system: Rhizoctonia solani (Rhizso); assay: as above; assay type: cell-based; conditions: 25 ppm, 3-4 days at 21°C, rated visually; note: ranges in brackets are in %
Procedure: as §1, §2, §3, §4

Pyricularia oryzae = assay type: in vivo; conditions: 200 ppm, host plants sprayed, dried, then inoculated
Alternaria solani = assay: In vivo fungicidal evaluation, Tomato Early Blight; conditions: 200 ppm, host plants sprayed, dried, then inoculated; note: ranges in brackets are in %
Botrytis cinerea = assay: In vivo fungicidal evaluation, Pepper Botrytis; conditions: 200 ppm, host plants sprayed, dried, then inoculated; note: ranges in brackets are in %
Venturia inaequalis = assay: In vivo fungicidal evaluation, Apple Scab; conditions: 200 ppm, host plants sprayed, dried, then inoculated; note: ranges in brackets are in %
[5] = test system: Puccinia recondita f. sp. tritici; assay: In vivo fungicidal evaluation, Wheat Leaf Rust; conditions: 200 ppm, host plants sprayed, dried, then inoculated; note: ranges in brackets are in %

Row | Molecule | WPM (Wheat Powdery Mildew) disease control rating [1] | SBC (Sugar Beet Cercospora) disease control rating (Cercospora beticola) | GDM (Grape Downy Mildew) disease control rating (Plasmopara viticola) | PHTHUL growth inhibition rating (Pythium ultimum (Pythul)) | PSDCHE growth inhibition rating [2] | FUSOXC growth inhibition rating [3] | RHIZSO growth inhibition rating [4] | RB (Rice Blast) disease control rating (Pyricularia oryzae) | TEB (Tomato Early Blight) disease control rating (Alternaria solani) | PB (Pepper Botrytis) disease control rating (Botrytis cinerea) | AS (Apple Scab) disease control rating (Venturia inaequalis) | WLR (Wheat Leaf Rust) disease control rating [5]
1 | C[B-](c1ccccc1)(c1ccccc1)[n+]1ccc(-c2ccccc2)cc1 [Compound 17, (4-Phenylpyridinio)methyldiphenylboron] | 8 (96 - 99) | 8 (96 - 99) | 9 (100) | 0 (0) | 7 (90 - 99) | 7 (90 - 99) | 5 (60 - 89) | 8 (96 - 99) | 9 (100) | 9 (100) | 9 (100) | –
2 | CC(=O)c1cc[n+]([B-](C)(c2ccccc2)c2ccccc2)cc1 [Compound 19, (4-Acetylpyridinio)methyldiphenylboron] | 8 (96 - 99) | 9 (100) | 9 (100) | 7 (90 - 99) | 9 (100) | 7 (90 - 99) | 7 (90 - 99) | 8 (96 - 99) | 8 (96 - 99) | 9 (100) | 9 (100) | –
3 | C[B-](c1ccccc1)(c1ccccc1)[n+]1ccc(C(C)(C)C)cc1 [Compound 20, (4-Tert-butyl-pyridinio)methyldiphenylboron] | 7 (90 - 95) | 9 (100) | 9 (100) | 7 (90 - 99) | 7 (90 - 99) | 7 (90 - 99) | 7 (90 - 99) | 8 (96 - 99) | 8 (96 - 99) | 9 (100) | 9 (100) | –
4 | (3-Butylpyridinio)methyldiphenylboron [Compound 3] | 8 (96 - 99) | 0 (0) | 9 (100) | 9 (100) | 9 (100) | 9 (100) | 9 (100) | 0 (0) | 8 (96 - 99) | 6 (75 - 89) | 9 (100) | 8 (96 - 99)
5 | (4-Cyanopyridinio)methyldiphenylboron [Compound 16] | 0 (0) | 8 (96 - 99) | 9 (100) | 7 (90 - 99) | 9 (100) | 7 (90 - 99) | 7 (90 - 99) | 9 (100) | 8 (96 - 99) | 8 (96 - 99) | 9 (100) | –
6 | (5,6,7,8-Tetrahydroisoquinolinio)methyldiphenylboron [Compound 4] | 8 (96 - 99) | 8 (96 - 99) | 9 (100) | 7 (90 - 99) | 9 (100) | 9 (100) | 9 (100) | 0 (0) | 6 (75 - 89) | 9 (100) | 9 (100) | 9 (100)
7 | Bis(p-fluorophenyl)(isoquinolinio)methylboron [Compound 13] | 8 (96 - 99) | 8 (96 - 99) | 9 (100) | 9 (100) | 9 (100) | 9 (100) | 9 (100) | 7 (90 - 95) | 8 (96 - 99) | 9 (100) | 7 (90 - 95) | 7 (90 - 95)
